One experiment concerns C. albicans. The experiment is described as follows: Antifungal activity by modified Kerby-Bauer disc method. Type of experiment: cell-based, Candida albicans. On the procedure:
• Susceptibility disks (5 mm in diameter) were impregnated with 0.5 mg of desired compound(s)/extract dissolved in DMSO, and placed on Sabouraud dextrose agar plates separately inoculated with the C. albicans and C. glabrata. […] Disc containing only DMSO was used as a negative control. • Anticandidal activity against Candida species: • Dose dependent anti-candidal activity was observed up on treatment using Lawsoniainermisextract against tested C. albicans and C. glabrata (Table 1).

Experiment [1] relates to proteinase of C. albicans NCIM 3074. As to the kind of experiment: Protease inhibitory activity, native gel electrophoresis (casein zymogram). The experiment is classed as cell-based, Candida albicans. Particulars: 100 μg mL-1 Lawsone; 24-48 h at 37° C.; FIG. 6. On the procedure:
(§1) C. albicans NCIM 3074 culture was grown in Sabouraud broth at 37° C. for 12 h. The culture was centrifuged at 7000 rpm for 5 mm to pellet the cells. The cell pellet was washed twice with normal saline and centrifuged to collect the pellets. 100 μL of Candida albicans cell suspension was added to proteinase induction medium containing 1% glucose, 3% yeast carbon base and 1% BSA (Bovine Serum Albumin). […] This was added to respective test tubes immediately after the inoculation of culture. The mixture was incubated for 24-48 h at 37° C. in a shaker at 150 rpm. Culture broth was centrifuged at 7000 rpm for 15 min to remove cells. Cells were lysed and cell lysis was used for zymographic studies after protein estimation. Zymogram was performed with 1% casein incorporated in the acrylamide gel to detect the proteinase inhibition activity. The proteinase inhibitory activity was indicated by no cleavage of casein (no band formation) and it can be compared to complete cleavage of casein by proteinases (white band formation) in control groups. […] Subsequently, 1 ml of 60% perchloric acid was added and the final volume was made to 9.1 ml using distilled water to this 0.5 ml of molybdate II reagent and 0.4 ml ANSA reagent mixture was added. The tubes were shaken well and heated in a boiling water bath for 8 mm exactly. The blue color developed was read using spectrophotometer at 680 nm.

For experiment [2], the system named is Phospholipase of C. albicans. As to the kind of experiment: Phospholipase inhibitory activity, spectrophotometric analysis. Type of experiment: cell-based, Candida albicans. As to conditions: Lawsone 100 μg/ml. On the procedure: as §1
Another experiment has as its system Candida sp. As to conditions: literature study (13); cited from earlier work.

What is called zone of inhibition is the size of the clear area around the sample on an inoculated plate. Higher therefore signals a stronger effect on the plate. On to `O=C1C=C(O)C(=O)c2ccccc21` [Lawsone], for which, in the experiment on C. albicans (C. albicans, all three concentrations 50, 100 and 200 μg/ml, FIG. 1), the “Inhibition of candidal growth” value is on record as “Complete inhibition of candidal growth”. Moreover, in the experiment on C. albicans (Candida albicans), the zone of inhibition at 50 µg/disc worked out at 14 mm, the zone of inhibition at 100 µg/disc is 16 mm and the zone of inhibition at 200 µg/disc was 17 mm. Moreover, the “Zymogram result, casein cleavage” value in experiment [1] is “intact Casein (no band/less intense band formation)”. Further, in experiment [2] (compared to Control), the “% Inhibition of Phospholipase Enzyme Activity” value was found to be 77.78%. For the same compound, the “Phospholipase Enzyme Activity (O.D)” value in experiment [2] (read at 680 nm) is 0.02 O.D. Further, the “Activity on Candida sp.” value in the experiment with Candida sp. is on record as “there isn't appreciable activity”.

The values above are taken from US20170042955A1, “Novel Anti-Fungal Composition” (priority 2014, published 2017).
